≈ marks a conversion by molar mass, not a printed value.
What was measured:
[1] = system: MCF7; test: Antiproliferative activity against human MCF7 cells after 48 hrs by MTT assay; format: functional, cell-based; settings: MCF7, 48 h
[2] = target: ATP-dependent translocase ABCB1 (Homo sapiens, UniProt P08183); test: Reversal of P-gp-mediated drug resistance in human MCF7/ADR cells assessed as increase in adriamycin accumulation at 0.2 mg/ml relative to control; format: cell-based
[3] = system: HepG2; test: Antiproliferative activity against human HepG2 cells at 1 mg/ml after 24 hrs by MTT assay relative to control; format: functional
[4] = system: HepG2; test: Antiproliferative activity against human HepG2 cells at 1 mg/ml after 48 hrs by MTT assay relative to control; format: functional
[5] = system: HepG2; test: Induction of apoptosis in human HepG2 cells at 0.5 mg/ml by Annexin V-FITC/propidium iodide staining based flow cytometry (reference value: 0.14%); format: functional
[6] = system: HepG2; test: Antiproliferative activity against human HepG2 cells after 48 hrs by MTT assay; format: functional, cell-based; settings: HepG2, 48 h
[7] = system: SGC-7901; test: Induction of apoptosis in human SGC7901 cells at 30 mg/ml after 48 hrs by propidium iodide staining based flow cytometry (reference value: 3.54 +/- 0.47%); format: functional
[8] = system: SGC-7901; test: Induction of apoptosis in human SGC7901 cells at 60 mg/ml after 48 hrs by propidium iodide staining based flow cytometry (reference value: 3.54 +/- 0.47%); format: functional
[9] = system: PANC-1; test: Antiproliferative activity against human PANC1 cells after 72 hrs by MTT assay; format: functional, cell-based; settings: PANC-1, 72 h
[10] = system: DU-145; test: Growth inhibition of human DU145 cells at 6 g/L after 72 hrs relative to control; format: functional; settings: DU-145, 72 h, read-out: GI
[11] = system: PC-3; test: Induction of apoptosis in human PC3 cells assessed as late apoptotic cells at 50 mg/mL (reference value: 2.5%); format: functional
[12] = system: HL-60; test: Antiproliferative activity against human HL60 cells after 24 hrs by MTT assay; format: functional, cell-based; settings: HL-60, 24 h
[13] = system: K562; test: Antiproliferative activity against human K562 cells after 72 hrs by MTT assay; format: functional, cell-based; settings: K562, 72 h
[14] = system: NIH3T3; test: Antiproliferative activity against mouse NIH/3T3 cells after 72 hrs by MTT assay; format: cell-based; settings: NIH3T3, 72 h
[15] = system: RPMI-8226; test: Induction of apoptosis in human RPMI8226 cells at 1500 mg/L after 48 hrs by Annexin V/propidium iodide staining based flow cytometry (reference value: 3.02 +/- 1.19%); format: functional
[16] = Growth inhibition of human MM1R cells after 24 hrs; format: functional; settings: MM.1R
[17] = system: U-266; test: Antiproliferative activity against human U266 cells after 24 hrs by MTT assay; format: functional, cell-based; settings: U-266, 24 h
[18] = system: RPMI-8226; test: Antiproliferative activity against human RPMI8226 cells after 48 hrs by MTT assay; format: functional, cell-based; settings: RPMI-8226, 48 h
[19] = system: RD; test: Induction of apoptosis in human RD cells at 1 mg/ml after 24 hrs by Annexin V-FITC/propidium iodide staining based flow cytometry relative to control; format: functional
[20] = system: RD; test: Induction of apoptosis in human RD cells at 1.5 mg/ml after 24 hrs by Annexin V-FITC/propidium iodide staining based flow cytometry relative to control; format: functional
[21] = system: 5637; test: Antiproliferative activity against human 5637 cells after 48 hrs by CCK8 assay; format: functional, cell-based; settings: Homo sapiens, 5637, 48 h
[22] = system: KYSE-150 cell line; test: Antiproliferative activity against human KYSE-150 cells assessed as cell viability at 2 mg/ml after 24 hrs by MTT assay relative to control; format: functional; settings: KYSE-150, 24 h, read-out: Activity
[23] = system: LoVo; test: Antiproliferative activity against human LoVo cells after 24 hrs by MTT assay; format: functional, cell-based
[24] = system: HT-29; test: Growth inhibition of human HT-29 cells at 4 ml/L after 36 hrs by MTT assay relative to control; format: functional
[25] = system: HT-29; test: Growth inhibition of human HT-29 cells at 8 ml/L after 36 hrs by MTT assay relative to control; format: functional
[26] = system: HT-29; test: Growth inhibition of human HT-29 cells at 16 ml/L after 48 hrs by MTT assay relative to control; format: functional
[27] = system: HT-29; test: Growth inhibition of human HT-29 cells at 32 ml/L after 48 hrs by MTT assay relative to control; format: functional
[28] = system: HOS-TE85; test: Growth inhibition of human MNNG-HOS cells after 48 hrs by MTT assay; format: functional, cell-based; settings: HOS-TE85, 48 h
[29] = system: U2OS; test: Growth inhibition of human U2OS cells at 0.8 mg/ml after 48 hrs by MTT assay relative to control; format: functional; settings: read-out: GI
[30] = system: SAOS-2; test: Growth inhibition of human Saos2 cells at 0.8 mg/ml after 48 hrs by MTT assay relative to control; format: functional; settings: SAOS-2, 48 h, read-out: GI
[31] = system: SAOS-2; test: Growth inhibition of human Saos2 cells at 3.2 mg/ml after 48 hrs by MTT assay relative to control; format: functional; settings: SAOS-2, 48 h, read-out: GI
[32] = system: UMR108; test: Growth inhibition of rat UMR108 cells assessed as cell proliferation at 1.5 mg/ml after 24 hrs by MTT assay (reference value: 0.405 +/- 0.007%); format: functional; settings: UMR108, 24 h, read-out: Activity
[33] = system: UMR108; test: Growth inhibition of rat UMR108 cells assessed as cell proliferation at 1 mg/ml after 48 hrs by MTT assay (reference value: 0.404 +/- 0.008%); format: functional; settings: UMR108, 48 h, read-out: Activity
[34] = system: UMR108; test: Growth inhibition of rat UMR108 cells assessed as cell proliferation at 0.5 mg/ml after 72 hrs by MTT assay (reference value: 0.403 +/- 0.009%); format: functional; settings: UMR108, 72 h, read-out: Activity
[35] = system: UMR108; test: Growth inhibition of rat UMR108 cells assessed as cell proliferation at 1 mg/ml after 72 hrs by MTT assay (reference value: 0.403 +/- 0.009%); format: functional; settings: UMR108, 72 h, read-out: Activity
[36] = Growth inhibition of human GRC1 cells at 0.5 g/L after 48 hrs by MTT assay relative to control; format: functional; settings: read-out: GI
[37] = Growth inhibition of human GRC1 cells at 0.5 g/L after 96 hrs by MTT assay relative to control; format: functional; settings: read-out: GI
[38] = system: D341 cell line; test: Growth inhibition of human D341 cells at 1 mg/ml after 72 hrs by CCK8 assay relative to control; format: functional; settings: D341, 72 h, read-out: GI
[39] = system: HT-29; test: Growth inhibition of human HT-29 cells at 16 mg/ml after 48 hrs by MTT assay relative to control; format: functional; settings: HT-29, 48 h, read-out: GI
[40] = system: M21; test: Growth inhibition of human M21 cells assessed as cell viability at 5 mg/ml after 48 hrs by MTT assay (reference value: 98%); format: functional; settings: M21, 48 h, read-out: Activity
[41] = system: M21; test: Induction of apoptosis in human M21 cells at 0.2 mg/ml after 48 hrs by Annexin V-FITC/propidium iodide staining based flow cytometry relative to control; format: functional
[42] = system: SiHa; test: Antiproliferative activity against human SiHa cells after 48 hrs by CCK8 assay; format: functional, cell-based
[43] = system: HT-29; test: Antiproliferative activity against human HT-29 cells by MTT assay; format: functional, cell-based

ATP-dependent translocase ABCB1, sequence (P08183 whole entry): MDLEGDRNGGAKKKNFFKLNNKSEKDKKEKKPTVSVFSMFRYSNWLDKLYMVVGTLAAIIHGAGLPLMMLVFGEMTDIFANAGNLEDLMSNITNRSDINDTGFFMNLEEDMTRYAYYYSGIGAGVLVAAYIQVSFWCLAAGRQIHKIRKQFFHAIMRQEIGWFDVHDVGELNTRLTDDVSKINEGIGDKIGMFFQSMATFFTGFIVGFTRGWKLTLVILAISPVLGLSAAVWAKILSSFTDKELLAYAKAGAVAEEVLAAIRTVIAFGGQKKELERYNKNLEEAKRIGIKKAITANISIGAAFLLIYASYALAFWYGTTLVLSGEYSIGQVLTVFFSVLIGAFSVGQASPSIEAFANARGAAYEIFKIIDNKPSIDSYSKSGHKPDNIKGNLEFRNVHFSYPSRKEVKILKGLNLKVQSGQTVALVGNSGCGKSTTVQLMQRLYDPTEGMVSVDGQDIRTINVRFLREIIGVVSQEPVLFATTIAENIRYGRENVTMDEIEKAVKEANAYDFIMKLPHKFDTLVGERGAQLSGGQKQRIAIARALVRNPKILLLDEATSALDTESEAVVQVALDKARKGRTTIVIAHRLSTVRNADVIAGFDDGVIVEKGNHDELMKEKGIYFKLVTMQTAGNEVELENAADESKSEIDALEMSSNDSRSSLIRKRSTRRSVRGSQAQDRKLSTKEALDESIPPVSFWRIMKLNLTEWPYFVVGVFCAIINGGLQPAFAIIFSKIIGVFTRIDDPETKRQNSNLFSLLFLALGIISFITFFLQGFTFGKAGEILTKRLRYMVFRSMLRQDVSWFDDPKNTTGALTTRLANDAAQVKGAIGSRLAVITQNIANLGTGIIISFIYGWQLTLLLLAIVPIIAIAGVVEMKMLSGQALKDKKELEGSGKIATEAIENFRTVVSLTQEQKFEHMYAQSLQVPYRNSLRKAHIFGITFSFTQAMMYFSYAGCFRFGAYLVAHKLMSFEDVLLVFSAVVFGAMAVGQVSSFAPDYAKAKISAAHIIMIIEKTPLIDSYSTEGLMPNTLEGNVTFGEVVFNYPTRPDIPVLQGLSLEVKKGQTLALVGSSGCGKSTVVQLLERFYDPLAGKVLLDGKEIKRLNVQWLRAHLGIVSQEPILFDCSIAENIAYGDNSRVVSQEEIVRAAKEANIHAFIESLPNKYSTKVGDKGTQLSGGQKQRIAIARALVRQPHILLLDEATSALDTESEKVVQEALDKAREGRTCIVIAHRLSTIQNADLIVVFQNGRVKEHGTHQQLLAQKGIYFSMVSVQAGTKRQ

In the case of `O=C1CCC[C@@H]2[C@H]3CCCN4CCC[C@@H](CN12)[C@@H]34` [MATRINE], the IC50 [1] is reported as 721 mg/L (≈ 2.9 mM), the “fold change (FC)” value [2] is reported as 3.56 and the Activity [3] is reported as 6.28%. For the same molecule, the Activity [4] was 14.81%, the Activity [5] was 28.91% and the IC50 [6] was 3.22 mM. The Activity [7] was 12.89%, the Activity [8] was 22.34% and the IC50 [9] was 3.66 mM. It also gave an inhibition of growth at 6000 µg/mL [10] of 90%, an Activity [11] of 21% and an IC50 [12] of 0.00366 mM. It also gave an IC50 [13] of 1.77 mM, an IC50 [14] greater than 8.06 mM and an Activity [15] of 31.1%. For the same molecule, the IC50 [16] was 5.4 mM, the IC50 [17] was 2180 mg/L (≈ 8.78 mM) and the IC50 [18] was 1640 mg/L (≈ 6.6 mM). The Activity [19] was 26.5%, the Activity [20] was 40.1% and the IC50 [21] was 4.48 mM. For the same molecule, the viability at 2000 µg/mL [22] was 53.7%, the IC50 [23] was 4.63 mM and the “growth inhibition (GI)” value [24] was 42.48%. The “growth inhibition (GI)” value [25] was 58.2%, the “growth inhibition (GI)” value [26] was 75.75% and the “growth inhibition (GI)” value [27] was 84.2%. For the same molecule, the IC50 [28] was 3.1 mM, the inhibition of growth at 800 µg/mL [29] was 10% and the inhibition of growth at 800 µg/mL [30] was 10%. It also gave an inhibition of growth at 3200 µg/mL [31] of 70%, a growth at 1500 µg/mL [32] of 0.245% and a growth at 1000 µg/mL [33] of 0.249%. It also gave a growth at 500 µg/mL [34] of 0.228%, a growth at 1000 µg/mL [35] of 0.195% and an inhibition of growth at 500 µg/mL [36] of 12.3%. For the same molecule, the inhibition of growth at 500 µg/mL [37] was 22.4%, the inhibition of growth at 1000 µg/mL [38] was 28.3% and the inhibition of growth at 16000 µg/mL [39] was 75.8%. For the same molecule, the viability at 5000 µg/mL [40] was 20%, the Activity [41] was 24.1% and the IC50 [42] was 5.76 mM. For the same molecule, the IC50 [43] was 0.0286 mM.

Reference: ChEMBL document CHEMBL4325859, “Research advances on anticancer activities of matrine and its derivatives: An updated overview” (Eur J Med Chem, 2019)
